{"source": "the NIST ThermoML archive (doi:10.1016/j.fluid.2010.02.043)", "settings": "Liquid, Ebulliometric method (Recirculating still)", "note": "Numbers after ± are expanded uncertainties.", "data": [{"smiles": "CSSC", "note": "[2,3-dithiabutane]", "values": [{"measurement": "vapor or sublimation pressure", "setting": "332.19 K", "value": "18.2 ± 0.4", "unit": "kPa"}, {"measurement": "vapor or sublimation pressure", "setting": "346.26 K", "value": "31.1 ± 0.4", "unit": "kPa"}, {"measurement": "vapor or sublimation pressure", "setting": "354.42 K", "value": "41.7 ± 0.4", "unit": "kPa"}, {"measurement": "vapor or sublimation pressure", "setting": "362.18 K", "value": "53.9 ± 0.4", "unit": "kPa"}, {"measurement": "vapor or sublimation pressure", "setting": "366.46 K", "value": "61.9 ± 0.4", "unit": "kPa"}, {"measurement": "vapor or sublimation pressure", "setting": "371.63 K", "value": "72.9 ± 0.4", "unit": "kPa"}, {"measurement": "vapor or sublimation pressure", "setting": "375.04 K", "value": "81.1 ± 0.4", "unit": "kPa"}, {"measurement": "vapor or sublimation pressure", "setting": "378.75 K", "value": "90.9 ± 0.4", "unit": "kPa"}, {"measurement": "vapor or sublimation pressure", "setting": "382.02 K", "value": "100.6 ± 0.5", "unit": "kPa"}]}, {"smiles": "CCSSCC", "note": "[3,4-dithiahexane]", "values": [{"measurement": "vapor or sublimation pressure", "setting": "366.97 K", "value": "15.8 ± 0.4", "unit": "kPa"}, {"measurement": "vapor or sublimation pressure", "setting": "378.82 K", "value": "24.1 ± 0.4", "unit": "kPa"}, {"measurement": "vapor or sublimation pressure", "setting": "387.59 K", "value": "32.3 ± 0.4", "unit": "kPa"}, {"measurement": "vapor or sublimation pressure", "setting": "397.84 K", "value": "44.4 ± 0.4", "unit": "kPa"}, {"measurement": "vapor or sublimation pressure", "setting": "403.31 K", "value": "52.8 ± 0.4", "unit": "kPa"}, {"measurement": "vapor or sublimation pressure", "setting": "408.91 K", "value": "62.2 ± 0.4", "unit": "kPa"}, {"measurement": "vapor or sublimation pressure", "setting": "413.59 K", "value": "71.1 ± 0.4", "unit": "kPa"}, {"measurement": "vapor or sublimation pressure", "setting": "418.73 K", "value": "82.1 ± 0.4", "unit": "kPa"}, {"measurement": "vapor or sublimation pressure", "setting": "422.25 K", "value": "90.5 ± 0.4", "unit": "kPa"}, {"measurement": "vapor or sublimation pressure", "setting": "426.39 K", "value": "100.7 ± 0.4", "unit": "kPa"}]}]}
